Experimental data taken from US5371081A, “N-substituted phenoxazines for treating multidrug resistant cancer cells” (St. Jude Children's Research Hospital, priority 1993, dated 1994).
Like-named read-outs stand apart in the source and are kept apart here.

Tests used:
Assay type in all cases: cell-based
KBCh^R -8-5 = experiment: Cytotoxicity of N-substituted phenoxazines to tumor cells (clonogenic survival); conditions: Homo sapiens, 168 h, 7 days, 37° C., read-out: IC50 (50% reduction in clonogenic survival)
Description: (§1) The KBCh®-8-5 cells were plated in triplicate at a density of 1000 cells per well and GC3 at 3000 cells per well in Falcon 6-well flat-bottom tissue culture plates (Becton Dickinson Co., Lincoln Park, N.J.). After 24 h, incubation medium was replaced with 3 mL of fresh medium containing compounds 1-4 or 10-14 or 18 at concentrations ranging from 1-100 μm (final culture concentration, 0.1% DMSO), and cells were incubated at 37° C. for a further 7 days. The medium was aspirated and cells were washed once with 2 mL of 0.9% saline and dried overnight. Colonies were stained with 1 mL of 0.1% crystal violet followed by washing twice with distilled water and were counted using an automated ARTEK Model 880 colony counter. The IC50 values were determined from concentration-percent-cell-survival curves and were defined as the concentrations of phenoxazines required for 50% reduction in colonies compared to controls.
(§2) ^a IC50 is the concentration required to produce 50% reduction i
(§3) clonogenic survivial of GC3 /Cl and KBCH^R -85 cells under the
(§4) conditions described in Example 23.

GC3 /CL = experiment: as above; conditions: Homo sapiens, 168 h, 7 days, 37° C., read-out: IC50 (50% reduction in clonogenic survival)
Description: as §1, §2, §3, §4

KB Ch^R -8-5 Cells = experiment: Vinca (VCR, VLB) accumulation, anti-MDR activity; conditions: Homo sapiens, compound 100 μM, 2 h, room temperature, mean of two experiments, SD <10%
Description: The resistance of the KBCh®-8-5 cells was maintained by culturing them with colchicine (10 ng/ml).
Then, 2 mL of cell suspensions (2×10^6) were plated in 35×10 mm style "easy grip" culture dishes (Becton Dickinson Co., Lincoln Park, N.J.). Cells were allowed to attach to plastic overnight at 37° C. Medium was aspirated and cells were washed with (2×2 mL) physiologic tris (PT) buffer. […] VCR (sp.act. 7.1 ci/mmol) or 49.5 nm [^3 H] […] After 2 h of incubation at room temperature, medium was rapidly aspirated to terminate drug accumulation, and monolayers were washed four times with ice-cold PBS (g/L: NaCL 8.0; Na2 HPO4.12H2 O, 2.9; KCl 0.2; KH2 PO4, 0.2) and drained. To each dish, 1 ml of trypsin-EDTA (0.05% trypsin, 0.53 mM EDTA) was added. After 1 minute, monolayers were triturated to give a uniform suspension of cells, and radioactivity in 0.75 ml was determined by scintillation counting. Cell number per dish was determined on 200 μl of suspension using the method of Butler, and amounts of intracellular VCR or VLB were determined.

GC3 /Cl Cells = experiment: Vinca (VCR, VLB) accumulation, anti-MDR activity; conditions: Homo sapiens, [3H] VCR 70.4 nm, compound 100 μM, 2 h, room temperature, mean of two experiments, SD <10%, read-out: Vinca Accumulation, VCR
[1] = [3H] VCR 70.4 nm, read-out: Vinca Accumulation, VCR
[2] = [3H] VLB 49.5 nm, read-out: Vinca Accumulation, VLB

Compound	IC50 (KBCh^R -8-5) [µM]	IC50 (GC3 /CL) [µM]	activity at 100 µM (KB Ch^R -8-5 Cells; [1]) [%]	activity at 100 µM (GC3 /Cl Cells) [%]	activity at 100 µM (KB Ch^R -8-5 Cells; [2]) [%]
ClCCCN1c2ccccc2Oc2ccccc21 [Compound 1, 10-(3'-chloropropyl)-phenoxazine]	57	83	454	846	–
CCN(CC)CCCN1c2ccccc2Oc2ccccc21 [Compound 2, 10-(3'-diethylaminopropyl)phenoxazine]	15	–	546	439	–
OCCN(CCO)CCCN1c2ccccc2Oc2ccccc21 [Compound 3, 10-(3'-bishydroxyethylaminopropyl)phenoxazine]	38	37	473	464	–
c1ccc2c(c1)Oc1ccccc1N2CCCN1CCOCC1 [Compound 4, 10-(3'-N-morpholinopropyl)phenoxazine]	73	40	742	634	–
c1ccc2c(c1)Oc1ccccc1N2CCCN1CCCCC1 [Compound 5, 10-(3'-N-piperidinopropyl)phenoxazine]	–	–	435	282	–
OCCN1CCN(CCCN2c3ccccc3Oc3ccccc32)CC1 [Compound 6, 10-(3'-β-hydroxyethylpiperazinopropyl) phenoxazine]	–	–	343	368	–
c1ccc2c(c1)Oc1ccccc1N2CCCN1CCCC1 [Compound 7, 10-(3'-N-pyrrolidinopropyl)phenoxazine]	–	–	408	250	–
ClCCCCN1c2ccccc2Oc2ccccc21 [Compound 8, 10-(4'-chlorobutyl)phenoxazine]	–	–	398	317	–
CCN(CC)CCCCN1c2ccccc2Oc2ccccc21 [Compound 9, 10-(4'-diethylaminobutyl)phenoxazine]	–	–	211	325	–
OCCN(CCO)CCCCN1c2ccccc2Oc2ccccc21 [Compound 10, 10-(4'-bishydroxyethylaminobutyl) phenoxazine]	< 10	16	92	382	–
c1ccc2c(c1)Oc1ccccc1N2CCCCN1CCOCC1 [Compound 11, 10-(4'-N-morpholinobutyl)phenoxazine]	18	27	702	477	–
c1ccc2c(c1)Oc1ccccc1N2CCCCN1CCCCC1 [Compound 12, 10-(4'-N-piperidinobutyl)phenoxazine]	< 10	7	196	416	–
OCCN1CCN(CCCCN2c3ccccc3Oc3ccccc32)CC1 [Compound 13, 10-(4'-β-hydroxyethylpiperazinobutyl) phenoxazine]	< 10	7	91	543	188
c1ccc2c(c1)Oc1ccccc1N2CCCCN1CCCC1 [Compound 14, 10-(4'-N-pyrrolidinobutyl)phenoxazine]	< 10	8	198	412	477
